Results as given in paper PMC6950821, “Bioactivity Evaluation of a Novel Formulated Curcumin” (Nutrients, 2019).
Read-outs that look alike come from different tables or passages of the source. Values belong to the compound of their own block, whether it stands above or below them.

Assays:
[1] = humans; 20 mg of piperine given concomitantly with 2 g of curcumin; cited from earlier work
[2] = rats; piperine given concomitantly with curcumin; cited from earlier work
Hep3B cells [3] = test: Cell cycle analysis (PI, flow cytometry), sub-G1 population; format: cell-based, human; conditions: 48 h, 30 μM conventional curcumin, 10 μM sorafenib
Procedure: After treatment, the cells were collected by trypsinization and fixed in precooled 70% ethanol overnight. The cells were then incubated with PI in the presence of RNase A. The DNA content was analyzed by a FACSCalibur, and the data were analyzed by Flowjo software. The percentage of cells in the sub-G1 was used to indicate the apoptosis rate.
(§1) formulated curcumin on HCC cell lines. (A) Huh7 cells were treated with various concentrations of
(§2) Cell viability was determined
(§3) cells were examined by flow cytometry.
(§4) were quantified using WinMDI 2.8 software.
(§5) compared to the control group.
(§6) μM of conventional curcumin for 48 h.
(§7) Quantification of cleavage-caspase-3
are representative of three independent experiments.
tetrazolium bromide; SEM, standard error of the mean.

Hep3B cells [4] = test: MTT viability assay, Hep3B; format: cell-based, human; conditions: dose-dependent
Procedure: (§8) After incubation, the media were removed from the wells.
Supplementary Figure 6. Effect of sorafenib with or without curcumin/formulated curcumin on Mahlavu and Hep3B cell viability. (A) Mahlavu and (B) Hep3B cells were treated with […]
(conventional)/formulated curcumin for 48 hours. Percentage of inhibition on Mahlavu and Hep3B cells was measured by MTT assay. Data are presented as means ± SEM. Results are representative of three independent experiments.

caspase-3 [5] = test: Western blot of cleaved caspase-3, Hep3B; format: cell-based, human; conditions: 10 μM sorafenib, 30 μM conventional curcumin, 48 h
Procedure: (§9) The cells were incubated with various treatment (conventional and formulated curcumin or combination of sorafenib and conventional and formulated curcumin), and then collected for western blot. Aliquots of cell lysates containing 20–50 μg of protein were separated by SDS-polyacrylamide gel electrophoresis (SDS-PAGE), transferred onto a polyvinylidene difluoride (PVDF) membrane and detected using specific primary and secondary antibodies. The protein bands were visualized by an enhanced chemiluminescence (ECL) detection kit (Immobilon^TM western, Millipore). The membranes were reprobed for β-actin as a loading control. All western blots were carried out at least three times for each experiment. The data were normalized to β-actin. The following primary antibodies were used: anti-extracellular regulated protein kinases (ERK), anti-caspase-3, anti-poly (ADP-ribose) polymerase (PARP) (all from Cell Signaling Technology) and anti-aurora kinase A (AURKA) (BD Biosciences). All antibodies were used at a 1:1000 dilution.
as §1, §2, §3, §4, §5, §6, §7
(§10) are representative of three independent experiments. […]

Huh7 cells [6] = test: MTT proliferation and viability assay, Huh7; format: cell-based, human; conditions: for cell viability: dose-dependent; for IC50: Homo sapiens
Procedure: as §8

Huh7 cells [7] = test: Annexin V and PI double staining by flow cytometry; format: cell-based, human; conditions: Huh7, 10–60 μM, 24 h, dose-dependent
Procedure: The Huh7 were incubated with various concentrations of conventional and formulated curcumin for 24 h. Annexin V/PI staining was performed to quantify cell apoptosis using an Annexin V-fluorescein isothiocyanate (FITC) Apoptosis Detection Kit (BioVision, Inc., Milpitas, CA, USA) according to the manufacturer’s protocol. Annexin V-FITC was then added followed by incubation for 15 minutes in the dark in a 100 µL cell suspension. PI was then spiked into 400 µL Annexin V binding buffer and added immediately to the cell suspension, and subsequently analyzed on a FACScan flow cytometer (BD Biosciences, USA).

PLC5 cells = test: MTT viability assay, PLC5; format: cell-based; conditions: 72 h (Figure 6C)
Procedure: (§11) Cells were seeded into a 96-well plate (1500–2000 cells/well) overnight and then treated with curcumin and the formulated curcumin respectively for 0, 24, 48, 72, 96 and 120 h. After treatment, […] 3-(4,5-cimethylthiazol-2-yl)-2,5-diphenyl tetrazolium bromide (MTT) was added to each well and cultured for 2 h at 37 °C. After incubation, the media were removed from the wells. The formazan crystals formed were then solubilized in DMSO at room temperature for 10 minutes, and then the absorbance was measured in a multimode microplate reader at 570 nm.

caspase-3 [8] = test: Western blot of cleaved caspase-3, Huh7; format: cell-based, human; conditions: dose-dependent
Procedure: as §9

ERK = test: Western blot of ERK phosphorylation, Huh7; format: cell-based, human; conditions: Huh7, 10–60 μM, 48 h
Procedure: as §9

LC3-II = test: Western blot of LC3-II, Hep3B; format: cell-based, human; conditions: 10 μM sorafenib, 30 μM conventional curcumin, 48 h
Procedure: as §9, §1, §2, §3, §4, §5, §6, §7, §10

Aurora-A = test: Western blot of Aurora-A, Huh7; format: cell-based, human; conditions: Huh7, 0–60 μM, 48 h
Procedure: as §9

[9] = Dissolution test, USP 41 basket method, 1% SDS medium; format: physicochemical; conditions: 37 °C
Procedure: A dissolution test was conducted by the US Pharmacopeia 41 basket method (apparatus 1) using a dissolution tester (708-DS Dissolution apparatus, Agilent, USA). The samples of 89 mg conventional curcumin (equivalent to 72 mg curcumin) and 2180 mg formulated curcumin (equivalent to 72 mg curcumin) were placed into 900 mL of dissolution medium containing 1% sodium dodecyl sulfate (SDS) at 37 °C ± 0.5 °C, under a stirring speed of 100 ± 2 rpm. A 5 mL sample was withdrawn at each time interval (5, 10, 15, 20, 30, 45, and 60 minutes) and was mixed and filtered through a 0.45-µm pore membrane. Then, 2 mL of filtrate was diluted with mobile phase so that the total volume became 10 mL and subjected to HPLC analysis (Agilent 1260, USA). The HPLC program consisted of a mobile phase of tetrahydrofuran: 0.1% citric acid solution (4:6). The column used was 4.6 mm × 20 cm with 5-µm packing L1. The flow rate was 1 mL/minute, and the injection volume was 20 µL using a 420 nm wavelength detector. The percentages of curcumin dissolved from the conventional curcumin and pellets (formulated curcumin) into the medium were calculated and compared.

Huh7 cells [10] = test: JC-1 mitochondrial membrane potential assay; format: cell-based, human; conditions: Huh7, JC-1, 10, 30, and 60 µM, concentration-dependent
Procedure: We employed 5, 5’, 6, 6’-tetrachloro-l, 1’, 3, 3’-tetraethylbenzimidazolcarbocyanine iodide (JC-1), which was obtained from Cayman Chemical Co., to analyze the mitochondrial membrane potential. The cells were seeded in 96-well black plates at a density of 7000 cells/well and cultured overnight. After treatment, JC-1 staining solution was added to each well and incubated at 37 °C for 15–30 minutes in the dark. The plates were obtained by centrifuged at 400 × g at room temperature for 5 minutes, and the supernatant was discarded. Then, JC-1 assay buffer was added to each well, followed by centrifugation at 400 × g at room temperature for 5 minutes, after which the supernatant was discarded. Finally, JC-1 assay buffer was added again to each well for fluorescent analysis using a fluorescent plate reader.

[11] = Pharmacokinetic study after oral gavage, curcumin in rat plasma by LC/MS/MS; format: in vivo, male Sprague Dawley (SD) rats; conditions: 500 mg/kg, n = 5
Procedure: All animal treatment procedures followed the Guide for the Care and Use of Laboratory Animals (National Institutes of Health (NIH) publication, 85–23, revised 1996) as well as the Animal research: Reporting in vivo experiments (ARRIVE) guidelines, and were approved by the Animal Research Committee at National Yang-Ming University, Taipei, Taiwan, under Institutional Animal Care and Use Committees (IACUC) approval no: 990103. All surgeries and experimental procedure were carried out under anesthesia with all efforts to minimize animal suffering. Twelve male Sprague Dawley (SD) rats (270 ± 15 g body weight) were obtained from Bio-Lasco, Taipei, Taiwan. Water was provided ad libitum, regardless of administration route. All animals were acclimatized and quarantined in quarantine room of the Rosetta animal facility for about 1 week, and then transferred to feeding room. The humidity and temperature were well controlled as 30%–70% and 19–25 °C. The light and dark cycle was set as 12 h: 12 h. Food and drinking water were allowed ad libitum during housing. Rats were randomly divided into two groups treated with curcumin and formulated curcumin. […] A 300 μL blood sample was collected from the tail vein into a tube rinsed with heparin at 0, 0.25, 0.5, 1, 1.5, 2, 4, 6 h after oral administration. Plasma was obtained by centrifuging the blood sample at 4000 rpm for 10 minutes at 4 °C. The 10 μL plasma was mixed with 50 μL of the internal standard solution containing 0.1 ng/µL of agomelatine. The samples were vortexed and centrifuged at 13,000 rpm for 5 minutes. The 50 µL of supernatant was transferred to the 1.5 mL tube contained 50 µL solution of 25% acetonitrile and 0.1% acetic acid. After that, 50 μL of the solution was injected onto LC-MS system. Curcumin concentrations in the samples were determined by positive ion electrospray tandem mass spectrometry using multiple reaction monitoring (MRM). Separation of curcumin was conducted on a Cosmosil column (5C18-MS-IIPacked column, 120 Å, 5 µm, 4.6 mm I.D. x 150 mm; NACALAI TESQUE, Inc., Japan) with a mobile phase of acetonitrile-water-formic acid. […] Pharmacokinetic analysis was calculated using a non-compartmental model with the Phoenix WinNonlin® (Version 8.0) software. The area under the drug concentration-time curve (AUC) was used to measure the total amount of curcumin reaching the systemic circulation. The relative oral bioavailability (BA) of curcumin was calculated according to the following equation: […] The pharmacokinetic results were represented as the mean ± SD. Statistical analysis was performed by t test (SPSS version 10.0) to compare the differences between groups. The level of significance was set at p < 0.05.

[12] = rat plasma, oral, cited from earlier work
Mahlavu cells = test: MTT viability assay, Mahlavu; format: cell-based; conditions: 72 h (Figure 6B)
Procedure: as §11

[13] = 50 mg/kg, n = 5, ref [6] of supplement
[14] = 340 mg/kg, n = 3, ref [5] of supplement
[15] = 500 mg/kg, n = 6, ref [7] of supplement

Structure (SMILES): O=C(/C=C/C=C/c1ccc2c(c1)OCO2)N1CCCCC1 [piperine]
- increase of serum curcumin [1]: 20 times
- increase of serum curcumin [2]: 1.56 times

Structure (SMILES): CNC(=O)c1cc(Oc2ccc(NC(=O)Nc3ccc(Cl)c(C(F)(F)F)c3)cc2)ccn1 [sorafenib]
- apoptosis rate (sub-G1 population) (Hep3B cells [3]): 10.9%
- cell viability (Hep3B cells [4]): inhibited cell viability
- levels of cleaved caspase-3 proteins (caspase-3 [5]): increased
- cell viability (Huh7 cells [6]): inhibited cell viability

- dissolution rate ([9]; 0 minutes): 0.00%
- dissolution rate ([9]; 5 minutes): 9.80%
- dissolution rate ([9]; 10 minutes): 13.60%
- dissolution rate ([9]; 15 minutes): 14.05%
- dissolution rate ([9]; 20 minutes): 17.28%
- dissolution rate ([9]; 30 minutes): 19.41%
- dissolution rate ([9]; 45 minutes): 24.06%
- AUC0-t/Dose [11]: 0.0022 ± 0.0024
- AUC0-t ([11]; male, Sprague Dawley): 1.1 ± 1.2 ng·h/mL
- Cmax ([11]; male, Sprague Dawley): 0.704 ± 0.272 ng/mL
- Tmax ([11]; male, Sprague Dawley): 75 ± 49.8 min
- IC50 (Huh7 cells [6]; Huh-7, 24 h, 24 h (Supplementary Figure S4)): ~90 µM
- IC50 (Huh7 cells [6]; Huh-7, 48 h, 48 h (Supplementary Figure S4)): ~90 µM
- IC50 (Huh7 cells [6]; Huh-7, 72 h, 72 h (Figure 6A)): 53.3 µM
- IC50 (Huh7 cells [6]; Huh-7, 72 h, 72 h (Supplementary Figure S4)): ~60 µM
- IC50 (Huh7 cells [6]; Huh-7, 96 h, 96 h (Supplementary Figure S4)): ~45 µM
- IC50 (Huh7 cells [6]; Huh-7, 120 h, 120 h (Supplementary Figure S4)): ~30 µM
Structure (SMILES): COc1cc(/C=C/C(=O)CC(=O)/C=C/c2ccc(O)c(OC)c2)ccc1O [conventional curcumin, curcumin]
- percentage of cells undergoing early apoptosis (annexin V+/PI–) and late apoptosis (annexin V+/PI+) (Huh7 cells [7]): increased
- apoptosis rate (sub-G1 population) (Hep3B cells [3]): 13.5%
- cell viability (Hep3B cells [4]): inhibited cell viability
- IC50 (PLC5 cells): 82.5 µM
- caspase-3 activity (cleaved form) (caspase-3 [8]): increased
- ERK phosphorylation (ERK): down-regulation
- LC3-II (LC3-II): significantly induced accumulation
- level of Aurora-A (Aurora-A): significant decrease
- levels of cleaved caspase-3 proteins (caspase-3 [5]): increased
- mitochondrial membrane potential (ΔΨm) (Huh7 cells [10]): significantly induced mitochondrial membrane potential breakdown
- cell viability (Huh7 cells [6]): inhibited cell viability
- AUC0-t [12, 13]: 8.76 ng·h/mL
- Cmax [12, 13]: 4.07 ± 0.56 ng/mL
- Tmax [12, 13]: 30 min
- AUC0-t [12, 14]: 80 ng·h/mL
- Cmax [12, 14]: 2.39 ± 1.66 ng/mL
- Tmax [12, 14]: 30 min
- AUC0-t [12, 15]: 60 ng·h/mL
- Cmax [12, 15]: 60 ± 10 ng/mL
- Tmax [12, 15]: 42 ± 5.4 min
- IC50 (Mahlavu cells): 35.4 µM
